The record followed here is US20210161189A1, “MONOESTER SUGAR DERIVATIVES AS FLAVOR MODIFIERS” (Firmenich SA, priority 2018, published 2021).

This assay relates to sensory panel. In words: Taste modifier properties in model systems (sensory panel of 15 persons, with/without noseclip). It is filed as in vivo, human. The following applies: 100 ppm. Here is the method: The sensory properties of various compositions comprising a monoester derivative of glucose were tested in various model systems, outlined in Table 14 below. [table] FIGS. 12 to 18 report the sweetness modifier properties of each of the following compounds (tested at 100 ppm in the various mode systems described above): glucose-6-O-octanoate, glucose-6-O-acetate, glucose-6-O-hexanoate, glucose-6-O-decanoate, glucose-6-O-hexadecanoate, glucose-6-O-oleate and glucose-6-O-oleyl derivative. The sensory properties were evaluated by a sensory panel consisting of15 persons, where the properties were evaluated with the subjects wearing a noseclip (With NC), and without a noseclip (Without NC). The subjects evaluate the perceived intensities of different sensory attributes on a linear scale (“0” note intense to “10” very intense) for the corresponding model mixtures without and with the compound at 100ppm. The differences of perceived intensities between the model mixtures with and without the compound are represented for each attribute. A statistical data treatment (unilateral paired student test) is achieved on each attribute to conclude on a significant or not significant taste modulation effect of the compound.

The mark [1] stands for this setting: SG95, with nose clip, significance 95%.
Setting [2] is: SG95-sour model system, with and without nose clip, significance 95%.

For `CC(=O)OC[C@@H](O)[C@@H](O)[C@H](O)[C@@H](O)C=O` [glucose-6-O-acetate], for the setting “SG95”, the “Licorice taste modulation effect” value is on record as “slight masking effects” and the “Sweet lingering modulation effect” value is “slight masking effects”. Also, the Bitterness modulation effect result (model system not stated) was “slight bitterness masking effet”. For the setting “sucrose model mixture”, the “Sweet taste modulation effect” value is on record as “slights enhancing sweetness effects”. Further, the “Taste modulation effects overall” value (tasted model systems) is given as “no significant modulation effects”.
Consider `CCCCCCCCCCCCCCCC(=O)OC[C@@H](O)[C@@H](O)[C@H](O)[C@@H](O)C=O` [glucose-6-O-hexadecanoate], for which the “Sweet taste modulation effect” value (SG95/sour model system, without nose clip, significance 95%) is on record as “significant sweet masking effect”. Further, the “Round/thick/mouth coating modulation effect” value (grapefruit beverage, significance 95%) is listed as “significant round/thick/mouth coating enhancing effect”. For the same molecule, the “Bitter taste modulation effect” value (with nose clip, significance 95%) is given as “significant bitter enhancing effect”.
glucose-6-O-oleyl derivative: the “Sweet lingering modulation effect” value under setting [1] is “significant sweet lingering masking effect”. Further, for the setting “beverage grapefruit, significance 95%”, the “Flavor intensity modulation effect” value is reported as “significant flavor intensity masking effect”.
In the case of `CCCCCCCC/C=C\CCCCCCCC(=O)OC[C@@H](O)[C@@H](O)[C@H](O)[C@@H](O)C=O` [glucose-6-O-oleate], the “Licorice taste modulation effect” value by setting is: under setting [2], “significant licorice taste masking effect”; (SG95 model system, with and without nose clip, at least 95%) “significant licorice taste masking effect”. Moreover, the “Bitter taste modulation effect” value (without nose clip, significance 95%) is reported as “significant bitter enhancing effect”. Besides, for the setting “without nose clip, significance 95%, model system not stated”, the “Sweet lingering modulation effect” value is “significant sweet lingering masking effect”.
For `CCCCCC(=O)OC[C@@H](O)[C@@H](O)[C@H](O)[C@@H](O)C=O` [glucose-6-O-hexanoate], under setting [2], the “Licorice taste modulation effect” value is given as “significant licorice taste masking effect” and the “Sour taste modulation effect” value was “significant sour enhancing effect”. In addition, under setting [1], the “Sweet lingering modulation effect” value was “significant sweet and sweet lingering masking effects”; the “Sweet taste modulation effect” value is “significant sweet and sweet lingering masking effects”. Moreover, the “Sweet taste modulation effect” value (sweet and sour model system, with and without nose clip, significance 95%) is listed as “significant sweet enhancing effect”.
Consider `CCCCCCCCCC(=O)OC[C@@H](O)[C@@H](O)[C@H](O)[C@@H](O)C=O` [glucose-6-O-decanoate], for which the “Licorice taste modulation effect” value (SG95-sour model system, without nose clip, significance 95%) is given as “significant licorice taste masking effect”. Moreover, the Taste modulation effects result (all the other model systems) is “no significant effects”.
